Reference: the PolyMetriX glass transition set
± gives the standard deviation of the reports.

Row | Structure (SMILES) | glass transition temperature
1 | *Oc1ccc(C(C)(C)c2ccc(Oc3cncc(*)n3)cc2)cc1 (repeat unit) | 145.00 °C
2 | *CCc1cc(Cl)c(*)c(Cl)c1 (repeat unit) | 110.00 °C
3 | *CC(*)(C)C(=O)OC(C)(C)C (repeat unit) [Poly(t-butyl methacrylate) ] | 107 ± 0.6 °C
4 | *CCCCCCc1nc2cc(NC(=O)CCCCCCCCC(=O)Nc3ccc4oc(*)nc4c3)ccc2o1 (repeat unit) | 86.00 °C
5 | *c1ccc(Oc2ccc(C(=O)c3ccc(C(=O)c4ccc(Oc5ccc(N6C(=O)c7ccc(-c8ccc9c(c8)C(=O)N(*)C9=O)cc7C6=O)cc5)cc4)cc3)cc2)cc1 (repeat unit) | 245.00 °C
6 | *CCOC(=O)c1cccc2c(C(=O)O*)cccc12 (repeat unit) | 78.00 °C
7 | *Oc1ccc(-c2ccc(OC(=O)c3ccc(C(*)=O)cc3Sc3ccc4ccccc4c3)cc2)cc1 (repeat unit) | 141.00 °C
8 | *CC(*)(C)C(=O)OCCCCCC(=O)Oc1ccc(OC(=O)c2ccc(OCCCCC)cc2)cc1 (repeat unit) | 50.00 °C
9 | *CC(*)(C)C(=O)OC(C)C (repeat unit) [Poly(isopropyl methacrylate)] | 83.92 ± 1.5 °C
10 | *Oc1ccc(C(C)(C)c2ccc(OC(*)(Oc3ccccc3)Oc3ccccc3)cc2)cc1 (repeat unit) | 92.00 °C
11 | *Nc1cccc2c(NC(=O)c3ccc(NC(=O)c4ccc([Si](C)(C)c5ccc(C(=O)Nc6ccc(C(*)=O)cc6)cc5)cc4)cc3)cccc12 (repeat unit) | 378.00 °C
12 | *Nc1cc(NC(=O)NC2CCC(CC3CCC(NC(*)=O)CC3)CC2)cc(C(=O)Nc2cccc3c2C(=O)c2ccccc2C3=O)c1 (repeat unit) | 156.00 °C
13 | *CCCCCCOC(=O)OCCCCCCOC(=O)OCCCCCCN1C(=O)c2ccc(C(=O)c3ccc4c(c3)C(=O)N(*)C4=O)cc2C1=O (repeat unit) | 40.00 °C
14 | *c1ccc2c(c1)C(CCCCCCCC)(CCCCCCCC)c1cc(-c3cc(F)c(*)cc3F)ccc1-2 (repeat unit) | 34.00 °C
15 | *Oc1ccc(NC(=O)c2ccc(C(c3ccc(C(=O)Nc4ccc(Oc5ccc(C6(c7ccc(*)cc7)C7CC8CC(C7)CC6C8)cc5)cc4)cc3)(C(F)(F)F)C(F)(F)F)cc2)cc1 (repeat unit) | 241.00 °C
16 | */C=C/c1ccc(*)c(-c2c(OCC(CC)CCCC)ccc3cc(-c4ccccc4)ccc23)c1 (repeat unit) | 141.00 °C
17 | *c1c(C)cc(-c2cc(C)c(N3C(=O)c4cccc(Oc5ccc(C(C)(C)c6ccc(Oc7cccc8c7C(=O)N(*)C8=O)cc6)cc5)c4C3=O)c(C)c2)cc1C (repeat unit) | 265.00 °C
18 | *CC(*)C=C (repeat unit) [Poly(1,2-butadiene)] | -6.08 ± 1.3 °C
19 | *CC(C)(CO*)COCC(F)(F)C(F)(F)C(F)(F)F (repeat unit) | -45.00 °C
20 | *Oc1ccc(Oc2ccc(/C=N/c3ccc(Oc4ccc(/N=C/c5ccc(*)cc5)cc4)cc3)cc2)cc1 (repeat unit) | 120.00 °C
21 | *CCCCCCNC(=O)c1ccccc1-c1ccccc1C(=O)N* (repeat unit) | 122.50 °C
22 | *C#Cc1cc(C(C)(C)C)cc2c3cc(C(C)(C)C)cc(*)c3n(CCCCCCCCCCCCCCCC)c12 (repeat unit) | 80.00 °C
23 | *Oc1ccc(NC(=O)c2ccc3cc(C(=O)Nc4ccc(Oc5ccc(C6(c7ccc(*)cc7)C7CC8CC(C7)CC6C8)cc5)cc4)ccc3c2)cc1 (repeat unit) | 266.00 °C

Row | Structure (SMILES) | glass transition temperature
24 | *CCCCCCCCCCN1C(=O)C2C3C=CC(C4C(=O)N(*)C(=O)C34)C2C1=O (repeat unit) | 219.00 °C
25 | */C=C/c1nc(/C=C/c2ccc3c(c2)c2cc(*)ccc2n3CCCCCC)c(C#N)c(/C=C/c2ccc(N(c3ccccc3)c3ccccc3)cc2)c1C#N (repeat unit) | 134.00 °C
26 | *CC(C)(CC)C(=O)O* (repeat unit) | -9.00 °C
27 | *C1OCOC(C(*)(F)F)C1(F)F (repeat unit) | 125.00 °C
28 | *CC1CCC(CNC(=O)c2cc(C(=O)N*)cc(C(C)(C)C)c2)CC1 (repeat unit) | 236.00 °C
29 | *CCN(CCOC(=O)Nc1ccc(C)c(NC(=O)O*)c1)c1ccc(/C=C/c2ccc([N+](=O)[O-])cc2)cc1 (repeat unit) | 121.00 °C
30 | *C(=O)c1ccc2c(c1)C(=O)N(c1ccc(Oc3ccc(C(=O)c4cccc(C(=O)c5ccc(Oc6ccc(N7C(=O)c8ccc(*)cc8C7=O)cc6)cc5)n4)cc3)cc1)C2=O (repeat unit) | 314.50 °C
31 | *c1cccc(C(F)(F)C(F)(F)C(F)(F)c2cccc(N3C(=O)c4ccc(Oc5ccc6c(c5)C(=O)N(*)C6=O)cc4C3=O)c2)c1 (repeat unit) | 183.00 °C
32 | *Oc1ccc(C(C)(C)c2ccc(Oc3ccc4c(c3)C(=O)N(N3C(=O)c5ccc(*)cc5C3=O)C4=O)cc2)cc1 (repeat unit) | 216.70 °C
33 | */C(=C/c1cc(OC)c(/C=C(\c2ccc(F)cc2)c2ccc3cc(*)ccc3c2)cc1OC)c1ccc(F)cc1 (repeat unit) | 208.00 °C
34 | *c1cccc(OCCCCCCCCCCCCOc2cccc(N3C(=O)c4ccc(-c5cccc6c5C(=O)N(*)C6=O)cc4C3=O)c2)c1 (repeat unit) | 116.00 °C
35 | */C=C/c1cc(OCC(CC)CCCC)c(/C=C/c2ccc3c4ccc(*)cc4n(CC(CC)CCCC)c3c2)cc1OCC(CC)CCCC (repeat unit) | 61.00 °C
36 | *O[Si](*)(C)CCCCCCCCCCC(=O)Oc1ccc(OC(=O)c2ccc(OCC(C)CC)cc2)cc1 (repeat unit) | 13.40 °C
37 | *Oc1ccc(S(=O)(=O)c2ccc(Oc3ccc(C(C)(C)c4ccc(*)cc4)cc3)cc2N)c(N)c1 (repeat unit) | 210.50 °C
38 | *CCCCCCOC(=O)OCCCCCCCCOC(=O)OCCCCCCn1c(=O)c2cc3c(=O)n(*)c(=O)c3cc2c1=O (repeat unit) | 8.00 °C
39 | *c1ccc2c(c1)C(CCCCCC)(CCCCCC)c1cc(-c3cc(OCCCCCCCC)c(*)cc3OCCCCCCCC)ccc1-2 (repeat unit) | 58.00 °C
40 | *CC(OC(=O)OCC)C(COC(=O)O*)OC(=O)OCC (repeat unit) | 49.80 °C
41 | *CC(OC)C(C(=O)O)C(*)C(=O)O (repeat unit) | 144.00 °C
42 | *CC(CO)(CCl)COc1ccc(C(c2ccc(O*)cc2)(C(F)(F)F)C(F)(F)F)cc1 (repeat unit) | 107.00 °C
43 | *O[Si](*)(CC)CC (repeat unit) | -139.00 °C
44 | *OC(F)(F)C(F)(F)C(*)(F)F (repeat unit) | -109.00 °C
45 | *O[Si](C)(C)O[Si](C)(C)O[Si](C)(C)O[Si](C)(C)O[Si](C)(C)O[Si](C)(C)OC1=C(*)c2cccc3cccc1c23 (repeat unit) | -93.00 °C
46 | *C(=O)c1ccc2c(c1)C(=O)N(c1ccc(OCCOCCOc3ccc(N4C(=O)c5ccc(*)cc5C4=O)cc3)cc1)C2=O (repeat unit) | 235.00 °C

Row | Structure (SMILES) | glass transition temperature
47 | *Oc1c(-c2ccccc2)cc(Cc2cc(-c3ccccc3)c(OC(=O)CCCCCCCCC(*)=O)c(-c3ccccc3)c2)cc1-c1ccccc1 (repeat unit) | 92.00 °C
48 | *C/C=C/COC(=O)CCCCCCCCC(=O)O* (repeat unit) | -41.00 °C
49 | *Oc1cccc(OC(=O)Oc2ccc(C(C)(C)c3ccc(OC(*)=O)cc3)cc2)c1 (repeat unit) | 83.10 °C
50 | *Oc1ccc(CC(C#N)(C#N)Cc2ccc(*)cc2)cc1 (repeat unit) | 147.00 °C
51 | *CC(*)C(=O)Oc1cccc(C(=O)OC)c1 (repeat unit) | 38.00 °C
52 | *Oc1ccc(C2(c3ccc(Oc4ccc(-c5ccc(-c6ccc(*)c(C(F)(F)F)c6)cc5)cc4C(F)(F)F)cc3)c3ccccc3-c3ccccc32)cc1 (repeat unit) | 237.00 °C
53 | *C(=O)Nc1ccc(S(=O)(=O)c2ccc(NC(=O)c3ccc4[nH]c(-c5cccc(-c6nc7cc(*)ccc7[nH]6)c5)nc4c3)cc2)cc1 (repeat unit) | 312.00 °C
54 | *Oc1ccc(CCNC(=O)c2cccc(C(*)=O)c2)cc1 (repeat unit) | 152.00 °C
55 | *CC(OCC)C(C)(C(=O)OC)C(*)(C)C(=O)OC (repeat unit) | 131.00 °C
56 | *CCCCCCOC(=O)C(CCCCCCCCCCP(=O)(OCC)OCC)C(=O)OCCCCCCOc1ccc(-n2on2-c2ccc(O*)cc2)cc1 (repeat unit) | 9.00 °C
57 | *c1cccc(N2C(=O)c3cccc(Oc4ccc(Oc5cccc6c5C(=O)N(*)C6=O)cc4)c3C2=O)c1 (repeat unit) | 259.00 °C
58 | *CCCCCC(c1ccc(O)cc1)C(*)c1ccc(O)cc1C (repeat unit) | 16.00 °C
59 | *CC(C)(CO*)COCCOCCOCCOC (repeat unit) | -18.00 °C
60 | *Nc1ccc(NC(=O)c2ccc(C(*)=O)cc2)cc1 (repeat unit) | 295.00 °C
61 | *CC(O)COc1ccc(C(C)(C)c2ccc(OCC(O)COc3cccc(NC(=O)CCCCCCC(=O)Nc4cccc(O*)c4)c3)cc2)cc1 (repeat unit) | 92.00 °C
62 | *CC(*)(C)C(=O)OCCCn1c2ccccc2c2ccccc21 (repeat unit) | 113.00 °C
63 | *c1nnc(-c2ccc(Oc3ccc(/C=C/c4ccc(Oc5ccc(*)c6ccccc56)cc4)c4ccccc34)c3ccccc23)o1 (repeat unit) | 241.00 °C
64 | *C(=O)c1ccc2c(c1)C(=O)N(c1cc(C(=O)c3ccccc3)cc(N3C(=O)c4ccc(*)cc4C3=O)c1)C2=O (repeat unit) | 282.00 °C
65 | *CC(*)(C)C(=O)OCCCCCCOc1ccc(C(=O)Oc2ccc(C#N)cc2)cc1 (repeat unit) | 43.00 °C
66 | *CC(*)OC(=O)C(C)(CC)C(C)(C)C (repeat unit) | 120.00 °C
67 | *N(C)[Si](*)(C)C (repeat unit) | -20.00 °C
